Assay results: article PMC7707621, “Oxidized Juncuenin B Analogues with Increased Antiproliferative Activity on Human Adherent Cell Lines: Semisynthesis and Biological Evaluation” (Journal of Natural Products, 2020)
Entries after “also recorded” stand apart in the source; their conditions may differ.

Key:
SiHa cells = assay: MTT antiproliferative assay on SiHa; assay type: cell-based, human; settings: for inhibition at 10 µM / inhibition at 30 µM: read-out: Growth inhibition (% ± SEM), SiHa
Procedure: (§1) The antiproliferative assays of the products were carried out by a standard MTT method on human breast (MCF-7, T47D), cervical (HeLa, SiHa, C33A), and ovarian (A2780) cancer cells, and NIH/3T3 mouse embryonic fibroblast cell lines. In the first step, the diastereomeric and racemic mixtures 1–11 and the starting compound, juncuenin B, were tested to obtain information about their antiproliferative activity.
(§2) The antiproliferative activity and tumor selectivity of the compounds were measured by standard MTT assays. Tumor cell lines MCF-7, T47D, HeLa, A2780, and noncancerous NIH/3T3 were provided by European Collection of Authenticated Cell Cultures (ECACC, Salisbury, UK); cell lines SiHa and C33A by LGC Standards GmbH (Wesel, Germany). All chemicals and materials used for the antiproliferative assays were purchased from Sigma Aldrich Ltd. (Budapest, Hungary).
(§3) Growth-inhibition properties of racemates and pure enantiomer compounds were determined by standard MTT assays on six human malignant gynecological cell lines (MCF-7, T47D, HeLa, SiHa, C33A, A2780). To investigate tumor selectivity, the MTT assay was repeated on mouse embryonic fibroblast cells (NIH/3T3) under the same conditions. All cell lines were maintained in minimal essential medium (MEM) supplemented with 10% fetal bovine serum, 1% nonessential amino acids, and 1% penicillin–streptomycin–amphotericin B mixture, and were stored in humidified air containing 5% CO2 at 37 °C. All cell types were seeded into 96–well plates at a density of 5000 with the exception of C33a, which was seeded at a density of 10 000 and treated by increasing concentrations (0.1–30 μM) of the compounds for 72 h under cell culturing conditions. After the incubation, 5 mg/mL MTT [3-(4,5-dimethylthiazol-2-yl)-2,5-diphenyltetrazolium bromide] solution was added to samples for 4 h and precipitated blue formazan crystals were dissolved in DMSO. Absorbance values of the samples were measured at 545 nm using a microplate reader (Stat Fax-2100, Awareness Technologies Inc., Palm City, FL, USA) and untreated cells were used as control. Normalized sigmoidal dose–response curves were fitted to the determined data and the IC50 values were calculated by GraphPad Prism 5.01 (GraphPad Software, San Diego, CA, USA). Cisplatin (Ebewe Pharma GmbH, Unterach, Austria) was used as a reference agent in the same concentration range.

C33A cells = assay: MTT antiproliferative assay on C33A; assay type: cell-based, human; settings: for inhibition at 10 µM / inhibition at 30 µM: read-out: Growth inhibition (% ± SEM), C33a
Procedure: as §1, §2, §3

A2780 cells = assay: MTT antiproliferative assay on A2780; assay type: cell-based, human; settings: for inhibition at 10 µM: A2780, 10 μM; for inhibition at 10 µM / inhibition at 30 µM: read-out: Growth inhibition (% ± SEM), A2780; for inhibition at 30 µM: A2780, 30 μM
Procedure: as §1, §2, §3

T47D cells = assay: MTT antiproliferative assay on T47D; assay type: cell-based, human; settings: for inhibition at 10 µM / inhibition at 30 µM: read-out: Growth inhibition (% ± SEM), T47d
Procedure: as §1, §2, §3

HeLa cells = assay: MTT antiproliferative assay on HeLa; assay type: cell-based, human; settings: for inhibition at 10 µM / inhibition at 30 µM: read-out: Growth inhibition (% ± SEM), HeLa
Procedure: as §1, §2, §3

[1] = system: MCF-7, T47D, HeLa, SiHa, C33A, A2780 cells; assay: MTT antiproliferative assay, panel of human gynecological cancer cell lines (result in words); assay type: cell-based
Procedure: as §1, §2, §3

MCF-7 cells = assay: MTT antiproliferative assay on MCF-7; assay type: cell-based, human; settings: for inhibition at 10 µM: MCF7, 10 μM; for inhibition at 10 µM / inhibition at 30 µM: read-out: Growth inhibition (% ± SEM), MCF-7; for inhibition at 30 µM: MCF7, 30 μM
Procedure: as §1, §2, §3

[2] = system: NIH/3T3 mouse embryonic fibroblast cells; assay: MTT assay for tumor selectivity on NIH/3T3; assay type: cell-based; settings: Mus musculus, NIH3T3
Procedure: as §1, §2, §3

| SMILES | inhibition at 10 µM (SiHa cells; Homo sapiens, SiHa, 10 μM) [%] | inhibition at 30 µM (SiHa cells; Homo sapiens, SiHa, 30 μM) [%] | inhibition at 10 µM (C33A cells; Homo sapiens, C-33-A, 10 μM) [%] | inhibition at 30 µM (C33A cells; Homo sapiens, C-33-A, 30 μM) [%] | inhibition at 10 µM (A2780 cells; Homo sapiens) [%] | inhibition at 30 µM (A2780 cells; Homo sapiens) [%] | inhibition at 10 µM (T47D cells; Homo sapiens, T47D, 10 μM) [%] | inhibition at 30 µM (T47D cells; Homo sapiens, T47D, 30 μM) [%] | inhibition at 10 µM (HeLa cells; Homo sapiens, HeLa, 10 μM) [%] | inhibition at 30 µM (HeLa cells; Homo sapiens, HeLa, 30 μM) [%] | antiproliferative activity (in words) [1] | inhibition at 10 µM (MCF-7 cells; Homo sapiens) [%] | inhibition at 30 µM (MCF-7 cells; Homo sapiens) [%] | also measured |
| --- | --- | --- | --- | --- | --- | --- | --- | --- | --- | --- | --- | --- | --- | --- |
| C=Cc1c(C)c(O)c(OC)c2c3c(ccc12)C(C)(OC)C(=O)C=C3 (centres unmarked) [Compound 3] | < 10 | < 10 | < 10 | 14.2 ± 1.51 | < 10 | < 10 | < 10 | 15.5 ± 2.06 | < 10 | 15 ± 1.11 | did not exert antiproliferative activity; also recorded: No significant activities | 22.7 ± 0.57 | 21.4 ± 0.34 | – |
| C=CC1=C(C)C(=O)C=C2C3(OC)C=CC(=O)C(C)=C3CCC21OC (centres unmarked) [Compound 2b] | – | – | – | – | – | – | – | – | – | – | did not exert antiproliferative activity; also recorded: No significant activities | – | – | Growth inhibition (% ± SEM), SiHa (SiHa cells; 10 μM): 14.10±2.36%; Growth inhibition (% ± SEM), SiHa (SiHa cells; 30 μM): 15.32±0.68%; Growth inhibition (% ± SEM), C33a (C33A cells; 10 μM): < 10%; Growth inhibition (% ± SEM), C33a (C33A cells; 30 μM): 23.25±2.82%; Growth inhibition (% ± SEM), A2780 (A2780 cells; 10 μM): < 10%; Growth inhibition (% ± SEM), A2780 (A2780 cells; 30 μM): 38.92±3.78%; Growth inhibition (% ± SEM), T47d (T47D cells; 10 μM): 16.79±1.72%; Growth inhibition (% ± SEM), T47d (T47D cells; 30 μM): 25.66±2.53%; Growth inhibition (% ± SEM), HeLa (HeLa cells; 10 μM): 16.35±1.56%; Growth inhibition (% ± SEM), HeLa (HeLa cells; 30 μM): 38.33±1.22%; Growth inhibition (% ± SEM), MCF-7 (MCF-7 cells; 10 μM): 27.86±1.80%; Growth inhibition (% ± SEM), MCF-7 (MCF-7 cells; 30 μM): 46.79±1.23% |
| C=CC1=C(C)C(=O)C(OCCCC)(OCCCC)c2c1ccc1c2C=CC(=O)C1(C)OCCCC (centres unmarked) [Compound 10] | < 10 | 10.4 ± 2.8 | < 10 | 16 ± 1.43 | < 10 | 10.1 ± 1.23 | < 10 | 33 ± 1.62 | < 10 | 14.1 ± 1.97 | did not exert antiproliferative activity | < 10 | 42.5 ± 2.23 | – |
| C=CC1=C(C)C(=O)C=C2c3ccc(O)c(C)c3CC[C@]21OCC [Compound 7b, 8a-ethoxy-1,7-dimethyl-6-oxo-8-vinyl-9,10-dihydrophenanthrene-2-ols] | < 10 | < 10 | < 10 | 26 ± 3 | < 10 | 20.6 ± 2.43 | < 10 | 13.5 ± 2.41 | 15 ± 2.72 | 31.7 ± 2.37 | no activity; also recorded: no relevant influence on the cell proliferation | < 10 | < 10 | IC50 (SiHa cells; Homo sapiens, SiHa, MTT, 0.1–30 μM, 72 h, mean ± SEM, read-out: calculated IC50 values, SiHa): > 30 µM; IC50 (C33A cells; Homo sapiens, C-33-A, MTT, 0.1–30 μM, 72 h, mean ± SEM, read-out: calculated IC50 values, C33A): > 30 µM; IC50 (A2780 cells; Homo sapiens, A2780, MTT, 0.1–30 μM, 72 h, mean ± SEM, read-out: calculated IC50 values, A2780): > 30 µM; IC50 (T47D cells; Homo sapiens, T47D, MTT, 0.1–30 μM, 72 h, mean ± SEM, read-out: calculated IC50 values, T47D): > 30 µM; IC50 (HeLa cells; Homo sapiens, HeLa, MTT, 0.1–30 μM, 72 h, mean ± SEM, read-out: calculated IC50 values, HeLa): > 30 µM; inhibition at 10 µM ([2]; 10 μM, read-out: Growth inhibition (% ± SEM), NIH): < 10%; inhibition at 30 µM ([2]; 30 μM, read-out: Growth inhibition (% ± SEM), NIH): 10.5 ± 1%; IC50 ([2]; MTT, 0.1–30 μM, 72 h, mean ± SEM, read-out: calculated IC50 values, NIH/3T3): > 30 µM; IC50 (MCF-7 cells; Homo sapiens, MCF7, MTT, 0.1–30 μM, 72 h, mean ± SEM, read-out: calculated IC50 values, MCF-7): > 30 µM |
| C=CC1=C2CCc3c(ccc(O)c3C)C2=CC(=O)C1(C)OCC (centres unmarked) [Compound 9] | < 10 | < 10 | < 10 | < 10 | < 10 | < 10 | < 10 | 13.2 ± 2.03 | 15.1 ± 1.9 | 18.4 ± 3.15 | did not exert antiproliferative activity; also recorded: No significant activities | 10.7 ± 2.42 | 17 ± 2.56 | – |
